Experimental data taken from ChEMBL document CHEMBL1268936, “Towards a systematic characterization of the antiprotozoal activity landscape of benzimidazole derivatives” (Bioorg Med Chem, 2010).

Columns and labels:
[1] = tested on: Giardia intestinalis; assay: Antiprotozoal activity against Giardia intestinalis; assay type: functional, organism-based; conditions: Giardia duodenalis
[2] = tested on: Trichomonas vaginalis; assay: Antiprotozoal activity against Trichomonas vaginalis; assay type: functional, organism-based

Structure (SMILES)	IC50 [1] [nM]	IC50 [2] [nM]
CCCSc1ccc2c(c1)nc(C(F)(F)F)n2C	10500	200
CCCSc1ccc2nc(C(F)(F)F)n(C)c2c1	1410	2570
Cn1c(C(F)(F)F)nc2cc(C(=O)c3ccccc3)ccc21	1100	29500
Cn1c(C(F)(F)F)nc2ccc(C(=O)c3ccccc3)cc21	1290	10700
FC(F)(F)C(F)(F)c1nc2cc(Cl)c(Cl)cc2[nH]1	562	302
O=[N+]([O-])c1cc2nc(C(F)(F)F)[nH]c2cc1[N+](=O)[O-]	240	575
FC(F)(F)C(F)(F)c1nc2c(Br)c(Br)c(Br)c(Br)c2[nH]1	22.9	10000
FC(F)(F)c1nc2c(Br)c(Br)c(Br)c(Br)c2[nH]1	56.2	2
FC(F)(F)c1nc2cc(Br)c(Br)cc2[nH]1	120	219
